From PMC12720098, “Prolintane analogs as hybrid monoamine transporter ligands: Structural determinants and species differences” (The Journal of Biological Chemistry, 2025)

Columns and labels:
hNET [1] = target: T1, hNET (Homo sapiens, UniProt P23975); test: Uptake inhibition assay ([3H]MPP+) in transfected HEK293 cells; format: cell-based
T1 construct: expressed in transfected cells
Method: HEK293 cells stably expressing human monoamine transporters hSERT, hDAT or hNET were seeded into poly-D-lysine (PDL) coated 96-well plates with a density of approximately 36,000 cells per well 1 day prior to experiments. A day after seeding, the cell medium was replaced with 200 μl Krebs-HEPES-buffer (KHB; 120 mM NaCl, 3 mM KCl, 2 mM CaCl2·2H2O, 2 mM MgCl2·6H2O, 20 mM D-glucose, pH = 7.3). The test drugs were initially dissolved in Milli-Q H2O or dimethyl sulfoxide (DMSO) at a concentration of 10 to 100 mM. Then, cells were treated with the respective concentration of the test drug diluted in KHB for 5 min as a pre-incubation step. Subsequently, in the uptake step, the solution was replaced with 50 μl/well diluted drug solution and tritiated substrate (hDAT: 0.1 μM [^3H]DA; hNET: 0.02 μM [^3H]MPP^+; hSERT: 0.1 μM [^3H]5-HT) for 1 min (hDAT, hSERT) or 3 min (hNET). After incubation, cells were immediately washed with 200 μl KHB to stop uptake. Uptake was indirectly measured by quantifying beta emission with liquid scintillation counting (Wallac 1450 MicroBeta TriLux Liquid Scintillation Counter & Lumi; GMI). Therefore, 200 μl Ultima Gold XR scintillation cocktail (PerkinElmer, MA, USA) was added to each well.
(§1) Half-maximal inhibitory concentrations (IC50) were obtained from fitting a sigmoidal dose–response ( Y=Bottom+Top−Bottom/1+10^((LogIC50−X)·HillSlope) ) in GraphPad Prism 10.3.1 (GraphPad Software Inc.). Uptake inhibition data were evaluated by one-way ANOVA followed by Tukey's multiple comparisons test. Release data were analyzed using a two-way ANOVA (batch release) or a mixed-effects model with Geisser-Greenhouse correction (time-dependent traces) employing Šidák correction for comparing differences between compounds with or without the addition of monensin.

rDAT = target: T2, rDAT (Rattus norvegicus, UniProt P23977); test: Uptake inhibition assay ([3H]dopamine) in rat brain synaptosomes; format: biochemical; details: for DAT/SERT ratio: rat isoform (r), 1/DAT IC50 / 1/SERT IC50
T2 construct: As a means to evaluate transporter activity of prolintane analogs in native tissue preparation; from tissue; host or cells: rat caudate synaptosomes
T2 sequence (P23977 whole entry, canonical isoform): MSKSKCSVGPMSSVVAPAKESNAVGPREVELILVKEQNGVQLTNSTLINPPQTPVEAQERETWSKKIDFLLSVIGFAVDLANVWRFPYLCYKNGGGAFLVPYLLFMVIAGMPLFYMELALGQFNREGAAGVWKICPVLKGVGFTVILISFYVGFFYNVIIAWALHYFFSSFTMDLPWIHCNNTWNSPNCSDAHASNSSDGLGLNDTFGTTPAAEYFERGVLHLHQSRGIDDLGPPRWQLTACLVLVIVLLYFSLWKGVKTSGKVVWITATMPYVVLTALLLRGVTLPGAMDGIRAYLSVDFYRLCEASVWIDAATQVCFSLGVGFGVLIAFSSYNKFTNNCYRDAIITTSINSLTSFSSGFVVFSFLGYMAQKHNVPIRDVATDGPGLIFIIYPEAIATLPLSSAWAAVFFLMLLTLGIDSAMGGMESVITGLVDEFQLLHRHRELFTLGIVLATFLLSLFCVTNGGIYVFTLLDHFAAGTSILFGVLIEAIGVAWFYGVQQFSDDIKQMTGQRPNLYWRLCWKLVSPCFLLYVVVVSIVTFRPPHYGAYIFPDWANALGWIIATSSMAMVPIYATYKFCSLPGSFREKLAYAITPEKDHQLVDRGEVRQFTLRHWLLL
Method: Rats were killed by CO2 narcosis and decapitated, then synaptosomes were prepared from brains using standard procedures. In brief, synaptosomes were prepared from caudate tissue for rat DAT (rDAT) assays, or from whole brain minus caudate and cerebellum for rat NET (rNET) and rat SERT (rSERT) assays. Brain tissue was homogenized in ice-cold 10% sucrose followed by centrifugation at 1000g for 10 min. The resulting supernatant containing crude synaptosomes was kept on ice until use in uptake or release procedures. Uptake inhibition and release assays were carried out as previously described ([62], [63]).
For uptake inhibition assays, 5 nM [^3H]dopamine, 10 nM [^3H]norepinephrine, or 5 nM [^3H]5-HT was used as the radiolabeled transmitter for rDAT, rNET, or rSERT, respectively. To optimize uptake for a single transporter, unlabeled blockers were included that prevented uptake of [^3H]transmitter by competing transporters: 50 nM GBR 12935 was added to NET and SERT assays to block DAT, 100 nM nomifensine was added to SERT assays to block NET. Uptake assays were initiated by adding 100 μl of tissue to 900 μl Krebs-phosphate buffer (126 mM NaCl, 2.4 mM KCl, 0.83 mM CaCl2, 0.8 mM MgCl2, 0.5 mM KH2PO4, 0.5 mM Na2SO4, 11.1 mM glucose, 0.05 mM pargyline, 1 mg/ml bovine serum albumin, and 1 mg/ml ascorbic acid, pH 7.4) containing test drug and [^3H]transmitter. Uptake assays were terminated by rapid vacuum filtration, and retained radioactivity was quantified with liquid scintillation counting.
Effects of test drugs on release and uptake inhibition were analyzed by nonlinear regression using GraphPad Prism 9 (GraphPad Scientific, San Diego, CA, USA). Concentration–response values for the uptake inhibition and release were fit to the equation, Y(x)=Ymin+Ymax−Ymin/1+10^((LogP50−LogX)·n) , where x is the concentration of the compound tested, Y(x) is the response measured, Ymax is the maximal response, P50 is either IC50 (the concentration that yields half-maximal uptake inhibition response) or EC50 (the concentration that yields half-maximal release response), and n is the Hill slope parameter.

hDAT = target: T3, hDAT (Homo sapiens, UniProt Q01959); test: Batch release assay ([3H]MPP+) in transfected HEK293 cells; format: cell-based; details: % efflux of total uptake, compounds approximately at IC50 concentration
T3 construct: expressed in transfected cells
T3 sequence (Q01959 whole entry): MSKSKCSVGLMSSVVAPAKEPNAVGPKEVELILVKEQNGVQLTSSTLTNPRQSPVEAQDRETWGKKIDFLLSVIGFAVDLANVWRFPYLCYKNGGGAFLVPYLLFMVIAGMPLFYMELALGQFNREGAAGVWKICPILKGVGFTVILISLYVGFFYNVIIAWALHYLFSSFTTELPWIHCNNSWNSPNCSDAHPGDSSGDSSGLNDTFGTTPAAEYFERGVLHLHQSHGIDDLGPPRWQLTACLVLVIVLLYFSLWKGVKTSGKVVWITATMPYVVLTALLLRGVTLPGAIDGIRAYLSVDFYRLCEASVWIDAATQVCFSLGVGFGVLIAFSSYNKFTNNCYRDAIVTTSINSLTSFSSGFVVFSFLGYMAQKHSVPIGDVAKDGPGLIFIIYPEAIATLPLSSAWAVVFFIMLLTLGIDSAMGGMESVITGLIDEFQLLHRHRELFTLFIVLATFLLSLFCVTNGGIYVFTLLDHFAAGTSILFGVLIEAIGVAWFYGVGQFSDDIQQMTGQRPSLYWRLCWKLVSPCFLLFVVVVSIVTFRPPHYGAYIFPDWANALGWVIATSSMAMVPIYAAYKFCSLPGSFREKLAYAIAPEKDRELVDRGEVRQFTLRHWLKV
Method: (§2) Batch release assays were performed as described previously ([44]). In brief, HEK293 cells stably expressing monoamine transporters were seeded similar to the procedure used for uptake inhibition assays. A day after seeding cells were pre-loaded with 50 μl/well 0.015 μM [^3H]MPP^+ (hDAT, hNET), or 0.08 μM [^3H]5-HT (hSERT) for 20 min at 37 °C. Then cells were washed four times for 3 to 4 min each and further incubated with KHB or KHB + monensin. After 10 min of incubation, two (screening) to four (full traces; hSERT) 2 min incubations were performed to establish a baseline release without substance. […] Each fraction was transferred to an empty well in the 96-well plate. For screening, a known inhibitor (hDAT, hNET: 50 μM GBR12909) and releaser (hDAT, hNET: 10 μM S-(+)-amphetamine) were used as controls. Ultima Gold XR scintillation cocktail was added to the remaining cells, and each well contained a release fraction. The counted radioactivity in the respective fraction was expressed as a percentage of total radioactivity at the start of the fraction.
as §1

hNET [2] = target: T1, hNET; test: as above; format: cell-based; details: % efflux of total uptake, compounds approximately at IC50 concentration
Method: as §2, §1

T1 sequence (P23975 whole entry): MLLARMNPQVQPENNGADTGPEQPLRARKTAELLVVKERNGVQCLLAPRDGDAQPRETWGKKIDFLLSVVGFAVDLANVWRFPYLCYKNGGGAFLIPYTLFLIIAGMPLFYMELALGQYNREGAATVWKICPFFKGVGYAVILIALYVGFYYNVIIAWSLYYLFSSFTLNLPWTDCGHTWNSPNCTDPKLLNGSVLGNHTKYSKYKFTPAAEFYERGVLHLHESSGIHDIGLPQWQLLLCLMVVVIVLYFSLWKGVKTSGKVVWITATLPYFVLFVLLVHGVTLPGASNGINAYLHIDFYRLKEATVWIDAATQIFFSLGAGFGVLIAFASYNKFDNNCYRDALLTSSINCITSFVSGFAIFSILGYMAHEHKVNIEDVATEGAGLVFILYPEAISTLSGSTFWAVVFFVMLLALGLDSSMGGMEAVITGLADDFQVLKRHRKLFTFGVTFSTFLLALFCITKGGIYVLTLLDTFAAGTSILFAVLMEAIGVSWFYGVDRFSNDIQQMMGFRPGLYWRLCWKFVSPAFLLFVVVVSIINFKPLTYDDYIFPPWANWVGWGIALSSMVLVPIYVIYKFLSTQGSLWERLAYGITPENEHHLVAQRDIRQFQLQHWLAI

Compound | IC50 (hNET [1]) [nM] | IC50 (rDAT) [nM] | DAT/SERT ratio (rDAT) | hDAT-mediated efflux, predicted (LS) mean diff, No mon - Mon (hDAT) | hNET-mediated efflux, predicted (LS) mean diff, No mon - Mon (hNET [2])
CCCC(Cc1ccccc1C)N1CCCC1 (centres unmarked) [2-Methylprolintane, 1-[1-(2-methylphenyl)pentan-2-yl]pyrrolidine] | 119 ± 49 | 324 ± 25 | 1 | -0.04333 | -0.3417
CCCC(Cc1cccc(C)c1)N1CCCC1 (centres unmarked) [3-Methylprolintane, 1-[1-(3-methylphenyl)pentan-2-yl]pyrrolidine] | 139 ± 33 | 111 ± 8 | 1.25 | -0.702 | -0.8634
CCCC(Cc1ccccc1)N1CCCC1 (centres unmarked) [Prolintane, 1-(1-phenylpentan-2-yl)pyrrolidine] | 59 ± 7 | 61 ± 6 | 38 | 0.1383 | -0.3446
CCCC(Cc1cccc(F)c1)N1CCCC1 (centres unmarked) [3-Fluoroprolintane, 1-[1-(3-fluorophenyl)pentan-2-yl]pyrrolidine] | 35 ± 11 | 58 ± 4 | 9 | 0.0325 | 0.3678
CCCC(Cc1ccccc1F)N1CCCC1 (centres unmarked) [2-Fluoroprolintane, 1-[1-(2-fluorophenyl)pentan-2-yl]pyrrolidine] | 102 ± 22 | 117 ± 10 | 19 | -0.6425 | 0.3867
CCCC(Cc1ccc(C)cc1)N1CCCC1 (centres unmarked) [4-Methylprolintane, 1-[1-(4-methylphenyl)pentan-2-yl]pyrrolidine] | 72 ± 14 | 37 ± 3 | 1.9 | -0.8967 | -0.3451
CCCC(Cc1ccc(F)cc1)N1CCCC1 (centres unmarked) [4-Fluoroprolintane, 1-[1-(4-fluorophenyl)pentan-2-yl]pyrrolidine] | 307 ± 97 | 213 ± 13 | 4.2 | -0.2875 | 0.3845
